Test results published in a melting point compilation (Tetko et al.; mined from patent text by program, amines drawn as free bases though some values may be those of a salt).

Compound `O=C(O)[C@@H]1CCCN1C(=O)c1cc2cc3c(cc2c2cc(OCc4ccccc4)ccc12)OCO3` has a melting point of 221 to 223 °C. Compound `CCn1ncc2c(Cl)c(CO)cnc21` has a melting point of 56 °C. Work on `Cc1cc(Oc2c(Cl)cc(C(F)(F)F)cc2Cl)nn1C(=O)NCc1ccccc1` yielded a melting point of 50 to 53 °C. Compound `CCOC(=O)C1=C(C)NC(N)=C(C(=O)OCC)C1c1ccccc1C` (stereo not given) has a melting point of 130 °C. `COc1cc(Cl)c(N=C=S)cc1C(=O)Nc1c(C)cccc1C` gave a melting point of 191 to 192 °C. Compound `OC1CCc2cc(Cl)c(Cl)cc21` (stereo not given) has a melting point of 84 °C. For `O=C1c2ccccc2Cc2ccccc2C1Br` (stereo not given), the melting point was 82 to 84 °C. `C=Cc1c(C(=O)NC2CC2)nnn1-c1ccc(C(=O)NCC)cc1` gave a melting point of 162 °C. For `CC(C(=O)O)c1ccc(CCNC(=O)c2cccc3cccnc23)cc1` (stereo not given), the melting point was 143 to 144 °C. In the case of `CCc1nc2nc3cc(Cl)ccc3nc2n1C(=O)c1ccccc1Br`, the melting point is reported as 130 to 132 °C. Work on `CCn1ncnc1COc1nn2c(-c3ccccc3F)nncc2c1C(C)(C)CC` yielded a melting point of 89 to 92 °C. With `CC(C(=O)O)c1cccc(NC(=O)NC2N=C(c3ccccc3F)c3ccccc3N(CC(=O)N3CC4CCC(CC4)C3)C2=O)c1` (racemic) the melting point was 187 to 204 °C. For `C=C1c2cccc(NC(=O)c3c(Cl)cccc3Cl)c2OC1(C)OC` (stereo not given), the melting point was 208 to 210 °C. With `O=C(O)c1cc2ccccc2nc1N[C@H](Cc1ccccc1)C(=O)O` the melting point was 140 to 142 °C. Work on `Nc1ccc(Sc2c(NCc3ccccc3)cc(C(=O)O)cc2S(N)(=O)=O)cc1` yielded a melting point of 254 to 256 °C. Compound `COC(=O)c1ccc(Oc2ccc(N)cc2C(=O)OC)cc1` has a melting point of 144 to 146 °C. With `COc1ccc2[nH]c(SCc3ncc(C)c(N(C)C)c3Cl)nc2c1` the melting point was 109 to 110 °C. `CNC(=O)n1cnc(C)c1Br` gave a melting point of 98.4 to 100 °C. In the case of `COC[C@@H]1Cc2ccccc2N1S(=O)(=O)c1ccc2c(c1)C(=O)C1=NCC(C)(C)CN12`, the melting point is reported as 173 to 175 °C. In the case of `O=C(O)COc1cc(Cl)ccc1C(=O)NCc1cccc(C(F)(F)F)c1`, the melting point is reported as 179 to 181 °C. In the case of `CCNc1ccc2c(c1)CN(c1c(F)cc3c(=O)c(C(=O)O)cn4c3c1OCC4C)C2` (stereo not given), the melting point is reported as > 300 °C. With `CC(CCC(=O)O)C1CCC2C3C(O)C(F)C4CC(O)CCC4(C)C3CCC12C` (stereo not given) the melting point was 102 to 105 °C. `Fc1ccc(-n2c(OCCN3CCCC3)cc3ccc(Cl)cc32)cc1` showed a melting point of 60 to 62 °C. With `CCNC(=O)C(I)=C(Br)I` the melting point was 154 to 155 °C. `Cc1oc(CCOc2ccc(CC3SC(=N)NC3=O)cc2)nc1CC(C)C` (stereo not given) gave a melting point of 167 to 168 °C. In the case of `CC(=O)OCCCC(C(=O)C=Cc1ccc(O)c(OC(F)(F)F)c1)C(=O)C=Cc1ccc(O)c(OC(F)(F)F)c1` (stereo not given), the melting point is reported as 130 to 131 °C. Work on `COc1ccc(C=CC(=O)Nc2cnc3ccc(Cl)cc3c2-c2ccccc2Cl)cc1OC` yielded a melting point of 208 to 209 °C. Compound `CC1=CCN(C)C2C1N2C#N` (stereo not given) has a melting point of 117 °C. Compound `COc1ccc2nc(COc3ccc(CC(C)C(N)=S)cc3)n(C)c2c1` (stereo not given) has a melting point of 204 to 206 °C. Compound `Cc1[nH]n(C2CCCCC2)c2nc(-c3ccncc3)nc(=O)c1-2` has a melting point of 292 to 293 °C. With `O=[N+]([O-])c1cc(CBr)n(CCBr)n1` the melting point was 95 to 97 °C. Work on `CCOC(=O)c1ncn(-c2cc(C(=O)OC)c([N+](=O)[O-])cc2C(F)(F)F)n1` yielded a melting point of 190 to 192 °C. `COc1ccc(C2=CCCC(=O)O2)cc1` showed a melting point of 77.4 to 79.8 °C. In the case of `Cc1ccc(NC(=O)c2ccccc2N)cc1C(F)(F)F`, the melting point is reported as 138 to 140 °C. `Nc1cc(Cl)c(N)c2c1C(=O)c1ccccc1C2=O` showed a melting point of 207 to 210 °C. For `COc1ccnc(CSc2nc3cc(-n4ccnc4)c(F)cc3[nH]2)c1`, the melting point was 86 to 87 °C. Compound `CCOC(=O)c1cc2cc(C=O)cc(C(C)CC)c2oc1=O` (stereo not given) has a melting point of 89 to 90 °C. `CC(=O)OCCCS(=O)(=O)c1ccc(S(N)(=O)=O)s1` gave a melting point of 103 to 104 °C. `CCOc1ccc(C(C)=O)cc1C(=O)O` gave a melting point of 122 to 125 °C. Compound `CN1CCC(OC2c3ccccc3CCn3c2nc(-c2ccccc2)c3C(=O)O)CC1` (stereo not given) has a melting point of 185 °C. For `COC(=O)CCC(=O)Nc1cccc(COc2ccc(C(C)=O)c(O)c2)c1`, the melting point was 121 to 123 °C. Compound `CC1(C)CS(=O)(=O)CC(C)(C)c2[nH]c(-c3ccccc3)nc21` has a melting point of 260 to 263 °C. For `CNC(=S)NS(=O)(=O)c1cc(CCNC(=O)c2cc(Cl)ccc2OC)ccc1-c1ccccc1`, the melting point was 192 to 196 °C. `CC(=O)c1ccc(C2CCCC2)cc1` showed a melting point of 100 to 102 °C. Compound `CCCCCCCCCCCCCCCCCCc1c(C(=O)OCC)[nH]c(C)c1C` has a melting point of 78 to 80 °C. `c1cnc2ccc(Cn3nnc4ccc(-n5ccnc5)nc43)cc2c1` showed a melting point of 227 to 230 °C. Compound `CSc1nc2ncccc2c2nnc(SCc3ccccc3)n12` has a melting point of 157 to 158 °C. For `Cc1c(=O)o[n-][n+]1CCSC1CCCCC1`, the melting point was 82 to 83 °C. Compound `COc1ccc(-n2nc(Sc3ccc(F)cc3)c(C)c(C#N)c2=O)cc1` has a melting point of 150 to 152 °C. Compound `CCO[C@@H]1c2ccc3c(nc(C)n3C)c2O[C@H](c2ccccc2)[C@H]1O` has a melting point of 222 °C.
